The text below walks through data of US20160030510A1, “METHODS OF TREATING ALZHEIMER'S DISEASE AND OTHER TAUOPATHIES WITH INHIBITORS OF MICROTUBULE AFFINITY REGULATING KINASE” (The Board of Trustees of the Leland Stanford Junior …, priority 2012, published 2016).

Assay [1] has as its system rat hippocampal neurons. Description: MARK4 overexpression-induced synaptic and spine toxicity in hippocampal neurons. The format is cell-based. The protocol:
(§1) Robust 12E8 staining (gray) is seen in EGFP-transfected control neurons. Total tau is stained with anti-HA (gray). […] EGFP-transfected neurons served as control. […] Data quantification is shown in (3E) (***P<0.001 in Student's t-test). Scale bar, 10 μm.
(§2) Rat E18 hippocampal neuron primary cultures were prepared as described (Yu et al. (2011) Hum. Mol. Genet. 20:3227-3240, herein incorporated by reference in its entirety). Cultured neurons, grown for 10-days in vitro in 12-well plates, were transfected with 2-3 μg of plasmid per well using a CalPhos Mammalian Transfection Kit (Clontech, San Jose, Calif., USA). Fluorescence immunocytochemistry was performed 3 days after transfection. Preparation and concentration of lentiviral particles were performed as described before (Yu et al., supra). Viral transfection of hippocampal neurons was carried out at 10 days after in vitro culture. The next day, the culture medium was replaced with 50% fresh medium and 50% conditioned medium.
Chicken anti-EGFP (1:4000) and rabbit anti-HA (1:3000) antibodies were purchased from Abcam (Cambridge, Mass., USA); mouse anti-Myc (1:1500, 4A6) and mouse anti-PSD-95 (1:300) from Millipore (Billerica, Mass., USA); rabbit anti-GluR1 (1:200) from Calbiochem (San Diego, Calif., USA) and rabbit anti-Synapsin I (1:1000) from Sigma (St Louis, Mo., USA). Immunofluorescence analysis was done essentially as described before (Yu et al., supra). Confocal images were obtained using a Leica TCS SP5 confocal microscope or Zeiss inverted LSM510 confocal microscope (Carl Zeiss, Inc.) with 63× NA 1.4 objectives. Processed confocal images were used to make 2D projections. Dendritic spine number and clusters of PSD-95, GluR1 or Synapsin I were manually counted as the number along a 10 μm length of dendrite and presented as mean±SEM. Each experiment was done at least three times and six to nine neurons were randomly selected for analysis each time. Between 15 and 30 dendritic processes were selected for quantification. Data were analyzed while blind to the conditions.

Assay [2] deals with PAR-1/MARK-mediated tau phosphorylation. Description: Tau phosphorylation in transfected rat hippocampal neurons (western blot / immunostaining with 12E8 and PHF-1 antibodies). Type of assay: cell-based. The procedure: as §1, §2
EGFP-tagged PSD-95-WT in the FHUGW lentivirus vector was described before (Xu et al. (2008) Neuron 57:248-262). The S561A mutation was introduced by site-directed mutagenesis. Tau S2A mutations were introduced as described before (Nishimura et al. Cell, 116:671-682), and subcloned into FHUGW with a C-terminal HA tag. EGFP- and HA-tagged human MARK4 constructs were obtained from Dr. Gerard Drewes. MKI cDNA was obtained from Dr. C. […]
(§3) Chicken anti-EGFP (1:4000) and rabbit anti-HA (1:3000) antibodies were purchased from Abcam (Cambridge, Mass., USA); mouse anti-Myc (1:1500, 4A6) and mouse anti-PSD-95 (1:300) from Millipore (Billerica, Mass., USA); rabbit anti-GluR1 (1:200) from Calbiochem (San Diego, Calif., USA) and rabbit anti-Synapsin I (1:1000) from Sigma (St Louis, Mo., USA). […] Dendritic spine number and clusters of PSD-95, GluR1 or Synapsin I were manually counted as the number along a 10 μm length of dendrite and presented as mean±SEM. […] Between 15 and 30 dendritic processes were selected for quantification. Data were analyzed while blind to the conditions.

The test system of assay [3] is AMP-activated kinase (AMPK). As to the kind of experiment: AMPK kinase activity in neurons detected with phospho-acetyl-CoA carboxylase (Ser79) antibody. The format is cell-based, rat. Conditions: specificity control; pACC antibody, FIG. 3C.
In assay [4] the test system is rat hippocampal neurons. The format is cell-based. Conditions: FIG. 4D.
For assay [5], the system named is rat hippocampal neurons. As to the kind of experiment: Aβ oligomer-induced synaptic and dendritic spine defects in hippocampal neurons (morphology). Type of assay: cell-based. Conditions: 5 μM Aβ oligomer-treated neurons. The procedure:
FIGS. 4A-4C show the effects of MKI-EGFP on Aβ-induced loss of PSD-95 (FIG. 4A) and GluR1 (FIG. 4B) clusters and spine numbers. Neurons transfected with MKI-EGFP or EGFP were treated with Aβ oligomer or mock-treated with solvent as control. The cytoplasmic GFP signals allowed detection of dendritic spines, and PSD-95 or GluR1 clusters were detected by immunostaining. Quantification of data is shown in (FIG. 4C) (***P<0.001 in Student's t-test). […] Summary graphs from four to six culture sets plotting normalized mEPSC frequency and mEPSC amplitude are shown beneath the traces. Scale bar, 5 μm.
as §2
Commercial Aβ-42 peptide was purchased from rPeptide (Bogart, Ga., USA). […]
as §3

The subject of a further assay is Aβ-induced spine loss. Conditions: Zempel et al. (2010); cited from earlier work.
The next assay concerns the target T1, Human MARK4 (Homo sapiens, UniProt Q96L34).
T1 construct: made in house; host or cells: HEK293 cells
T1 sequence (Q96L34 1-752): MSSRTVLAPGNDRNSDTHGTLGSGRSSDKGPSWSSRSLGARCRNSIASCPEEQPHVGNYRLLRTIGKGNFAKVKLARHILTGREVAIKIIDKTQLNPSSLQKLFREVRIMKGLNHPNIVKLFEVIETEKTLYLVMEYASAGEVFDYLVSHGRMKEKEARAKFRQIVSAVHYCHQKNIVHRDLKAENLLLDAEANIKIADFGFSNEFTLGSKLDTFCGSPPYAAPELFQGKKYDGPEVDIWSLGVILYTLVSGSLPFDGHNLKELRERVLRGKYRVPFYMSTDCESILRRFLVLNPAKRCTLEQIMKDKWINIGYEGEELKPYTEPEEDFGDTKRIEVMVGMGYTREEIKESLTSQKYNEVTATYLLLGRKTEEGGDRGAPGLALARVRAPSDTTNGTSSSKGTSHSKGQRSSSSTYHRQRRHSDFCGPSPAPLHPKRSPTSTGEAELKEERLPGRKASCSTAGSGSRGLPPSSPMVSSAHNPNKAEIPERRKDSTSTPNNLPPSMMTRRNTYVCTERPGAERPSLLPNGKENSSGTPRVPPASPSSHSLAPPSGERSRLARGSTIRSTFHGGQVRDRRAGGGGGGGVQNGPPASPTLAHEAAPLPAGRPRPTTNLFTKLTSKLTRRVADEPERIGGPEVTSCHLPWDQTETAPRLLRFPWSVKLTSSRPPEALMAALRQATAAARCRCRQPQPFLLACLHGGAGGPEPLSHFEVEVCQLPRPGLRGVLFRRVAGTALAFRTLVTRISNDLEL
Description: In vitro kinase assay of MARK4 phosphorylating tau (Western blot). Conditions: human MARK4 and tau affinity-purified from HEK293 cells, FIG. 7. The format is biochemical. From the text:
Both human MARK4 and tau proteins were expressed in HEK293 cells and affinity-purified by immunoprecipitation. After in vitro kinase reaction in the presence or absence of the peptides, the reaction mixtures were separated on SDS-PAGE to separate the proteins, and the levels of total tau and phospho-tau generated by MARK4 were detected by Western blot analysis. The TAT peptide was used as a negative control. Note the inhibition of MARK4-mediated tau phosphorylation by both TAT-MKI and MKI-TAT.
We next tested the ability of the TAT-MKI and MKI-TAT fusions to inhibit the activity of MARK4 kinase in phosphorylating the tau protein (FIG. 7). Human MARK4 and tau proteins were expressed in HEK293 cells and affinity-purified by immunoprecipitation. In vitro kinase reactions were performed in the presence or absence of the TAT-MKI and MKI-TAT fusion peptides and the levels of total tau and phospho-tau generated by MARK4 were detected by Western blot analysis. The TAT peptide was used as a negative control. Both the TAT-MKI and MKI-TAT fusion peptides inhibited MARK4-mediated tau phosphorylation in vitro.
In general terms: In western blotting, separated proteins are transferred to a membrane and probed.

Another assay deals with all MARKs. Conditions: Nesic et al. (2010); cited from earlier work.

Where a SMILES comes first, the peptide text is derived from it. Where no end group is shown, it is not given here.

In the case of “MKI-EGFP: MKI cDNA subcloned into FHUGW lentivirus vector with a C-terminal EGFP tag, expressed in rat hippocampal neurons (FPLKRHDKVDDLSK; not fully specified (C-terminus))”, in the assay with rat hippocampal neurons [1] (FIG. 3E), the “MARK4 overexpression-induced reduction of GluR1 puncta density” value is “effectively blocked” and the “MARK4 overexpression-induced reduction of PSD-95 puncta density” value is given as “effectively blocked”. Besides, the “MARK4 overexpression-induced spine loss” value in the assay with rat hippocampal neurons [1] (co-expression in rat hippocampal neurons, FIGS. 3D and 3E) is given as “effectively blocked”. Also, the “MARK4-mediated phosphorylation of transfected human tau at the 12E8 sites” value in assay [2] (HA-tagged h-tau-WT in rat hippocampal neurons, immunostaining, FIG. 3B) was “effectively attenuated”. In assay [2] (expressed in rat hippocampal neurons, western blot, FIG. 3A), the “MARK4-mediated phosphorylation of endogenous tau at the 12E8 sites” value is on record as “effectively attenuated”. The “phosphorylation of acetyl-CoA carboxylase (ACC) by AMP-activated kinase (AMPK)” value in assay [3] is on record as “did not affect”. Further, the “reduction of mEPSC frequency caused by Aβ” value in the assay with rat hippocampal neurons [4] (Aβ-treated neurons, held at −70 mV) is recorded as “effectively rescued”. Moreover, in the assay with rat hippocampal neurons [4] (no Aβ (mock-treated)), the “mEPSC amplitude in neurons expressing inhibitor alone” value is given as “not amplitude” and the “mEPSC frequency in neurons expressing inhibitor alone” value is “reduced mEPSC frequency”. Moreover, in the assay with rat hippocampal neurons [5] (FIGS. 4A and 4C), the “Aβ-caused reduction in the density of PSD-95 puncta” value was “effectively blocked”. In addition, the “Aβ-caused loss of dendritic spines” value with rat hippocampal neurons [5] (FIGS. 4A-4C) is listed as “effectively blocked”. In addition, the “Aβ-caused reduction in the density of GluR1 puncta” value in the assay on rat hippocampal neurons [5] (FIGS. 4B and 4C) is reported as “effectively blocked”.
Regarding `CC(=O)O[C@H]1C(=O)[C@@]2(C)[C@H]([C@H](OC(=O)c3ccccc3)[C@]3(O)C[C@H](OC(=O)[C@H](O)[C@@H](NC(=O)c4ccccc4)c4ccccc4)C(C)=C1C3(C)C)[C@]1(OC(C)=O)CO[C@@H]1C[C@@H]2O` [taxol], in the assay on Aβ-induced spine loss, the Aβ-induced spine loss result is reported as “preventable”.
Consider `CC(=O)N[C@@H](Cc1ccc(O)cc1)C(=O)NCC(=O)N[C@@H](CCCNC(=N)N)C(=O)N[C@@H](CCCCN)C(=O)N[C@@H](CCCCN)C(=O)N[C@@H](CCCNC(=N)N)C(=O)N[C@@H](CCCNC(=N)N)C(=O)N[C@@H](CCC(N)=O)C(=O)N[C@@H](CCCNC(=N)N)C(=O)N[C@@H](CCCNC(=N)N)C(=O)N[C@@H](CCCNC(=N)N)C(=O)NCC(=O)NCC(=O)N[C@@H](Cc1ccccc1)C(=O)N1CCC[C@H]1C(=O)N[C@@H](CC(C)C)C(=O)N[C@@H](CCCCN)C(=O)N[C@@H](CCCNC(=N)N)C(=O)N[C@@H](Cc1c[nH]cn1)C(=O)N[C@@H](CC(=O)O)C(=O)NCC(=O)N[C@H](C(=O)N[C@@H](CC(=O)O)C(=O)N[C@@H](CC(=O)O)C(=O)N[C@@H](CC(C)C)C(=O)N[C@@H](CO)C(=O)N[C@@H](CCCCN)C(=O)N[C@H](C(=O)NCC(N)=O)C(C)C)C(C)C` [TAT-MKI] (Ac-YGRKKRRQRRRGGFPLKRHDGVDDLSKVG-NH2), for which the “MARK4-mediated tau phosphorylation in vitro” value on Human MARK4 was “inhibited”.
Consider “MKI: peptide inhibitor (SEQ ID NO:1) derived from the CagA protein of Helicobacter pylori, binds substrate-binding sites of all MARKs (FPLKRHDKVDDLSK)”, for which, in assay [2] (rat hippocampal neurons, western blot, FIG. 3A), the “Phosphorylation of tau at the PHF-1 site” value is recorded as “reduced”. Moreover, the “binding to the substrate-binding sites of all MARKs” value in the assay on all MARKs is reported as “specifically bind with high affinity”.
